Experimental data published in PMC11881906, “Development of xanthone derivatives as effective broad-spectrum antimicrobials: Disrupting cell wall and inhibiting DNA synthesis” (Science Advances, 2025).
≈ marks a conversion by molar mass, not a printed value.

Legend:
[1] = tested on: P. aeruginosa ATCC 9027; assay: Serial passage resistance induction; assay type: cell-based, Pseudomonas aeruginosa; conditions: 20-day passages at 0.5× MIC
Procedure: The bacteria were grown in a medium containing 0.5× MIC of each compound to prepare the bacterial suspension for the next MIC determination. The MICs were then recorded after incubation at 37°C for 24 hours. Daily passages were continued until the initial MIC increased by more than fourfold. The stability of acquired resistance was investigated by MIC determination and repeated for 20 days.

[2] = tested on: E. coli ATCC 25922; assay: RNA-seq transcriptome response; assay type: cell-based, Escherichia coli; conditions: 4× MIC, 2 hours
Procedure: After exposure, 1-ml aliquots of cells were immediately pelleted at 4°C by centrifugation for 2 min at 2000 rpm. The supernatants were removed and immediately frozen in liquid nitrogen. The samples were stored at −80°C for later total RNA isolation. Total RNA was extracted using the bacterial RNA kit (Omega Bio-Tek, USA) according to the manufacturer’s instructions. The RNA integrity number values were obtained to assess RNA quality using an Agilent Genomics 2200 Tape Station instrument.
A total amount of 2 to 5 ng of the RNA per sample was executed as the input material to construct each cDNA library for RNA-seq using the NEBNext Ultra Directional RNA Library prep kit from Illumina. The quality of the resulting libraries was checked using Agilent High Sensitivity DNA chips to ensure proper library size distribution and the absence of small adapters.
Read mapping was aligned using Bowtie2 ([74]). HTSeq v0.6.1 was used for quantification of expression levels ([75]). DESeq2 on the R package (v1.12.4) was used to calculate DEGs. Differential expression was computed using edgeR: exactTest for each treatment versus the untreated control ([76]). The E. coli database used for mapping was GCF_017357505.1_ASM1735750v1_genomic.fna. Both the GO and KEGG (KEGG Ortholog database) enrichment analyses were done with the Fisher’s exact test. All P values were adjusted with the Benjamini-Hochberg procedure to generate false discovery rates (adjusted P values). GO enrichment analysis was carried out using the clusterProfiler package on the R platform ([77]). KEGG pathway mapping and figure generation were performed with the PathView website ([78]). COG of protein databases were searched with an E value of 1e^-5. For hierarchal clustering analysis of gene expression, the gene expression levels were normalized to z scores of log10 (FPKM + 1), where FPKM is fragments per kilobase per million. For hierarchal clustering analysis of the regulation of transcription factors, the unweighted pair group method with arithmetic mean (UPGMA) method was used as the clustering method. […] Volcano plots were generated by plot_volcano from soothsayer (https://github.com/jolespin/soothsayer) in Python v.3.6.6. Directed networks were constructed and plotted using NetworkX and Matplotlib Python packages, respectively. Hierarchical clustering analysis and heatmap calculation were performed with the pheatmap package on the R platform. The umap package on the R platform was used for uniform manifold approximation and projection (UMAP) analysis of FPKM vectors of each transcriptome. The figures were created via the ggplot2 package ([79]).

[3] = tested on: MRSA N315; assay: MIC, broth microdilution; assay type: cell-based; conditions: Staphylococcus aureus, 24 h, read-out: MIC90 MRSA N315
Procedure: (§1) MIC was determined using the broth microdilution method in accordance with Clinical and Laboratory Standards Institute guidelines. All compounds were dissolved in dimethyl sulfoxide (DMSO; final DMSO concentration of less than 0.5%) and sterile double-distilled water and then diluted with Mueller-Hinton broth (MHB). Each compound’s stock solution was serially twofold diluted, resulting in concentrations ranging from 0.39 to 100 μg/ml, and thereafter added to sterile 96-well plates. All bacterial cell suspensions were adjusted in MHB to attain a starting inoculum of 1 × 10^6 cells/ml. A total of 100 μl volume of the bacterial suspension was then added to each well. Following a 24-hour incubation at 37°C, the optical density at 600 nm (OD600) was confirmed by measuring absorbance at 600 nm with a BioTek microplate reader. […] All measurements were repeated three times with duplicates each time.

[4] = tested on: MRSA NCTC 10442; assay: MIC, broth microdilution; assay type: cell-based; conditions: Staphylococcus aureus, 24 h, read-out: MIC90 MRSA NCTC 10442
Procedure: as §1

[5] = tested on: S. aureus ATCC 29213; assay: MIC, broth microdilution; assay type: cell-based; conditions: Staphylococcus aureus, ATCC29213, 24 h, read-out: MIC90 S. aureus ATCC 29213
Procedure: as §1

[6] = tested on: E. coli ATCC 25922; assay: MIC, broth microdilution; assay type: cell-based, Escherichia coli; conditions: Escherichia coli, ATCC25922, 24 h, read-out: MIC90 E. coli ATCC 25922
Procedure: as §1

[7] = tested on: rabbit erythrocytes; assay: Hemolysis assay; assay type: cell-based; conditions: concentration causing 50% hemolysis of red blood cells; 1 hour, 37°C
Procedure: The hemolytic activity of antimicrobial agents was investigated as previously described ([70]). Briefly, the rabbit erythrocytes were centrifuged at 2500 rpm for 3 min before being washed twice with sterile phosphate-buffered saline (PBS) (pH 7.4). Subsequently, the erythrocytes were diluted with PBS to a final concentration of 8% (v/v). The DMSO-dissolved compounds were twofold serially diluted in PBS to achieve a final concentration with DMSO less than 0.5%. […] Sterile PBS and 0.2% Triton X-100 were used as negative and positive controls, respectively. After 1 hour of incubation at 37°C, the tested samples were centrifuged at 2500 rpm for 5 min, and aliquots of the supernatant were added to 96-well microplates. The hemoglobin release was determined by measuring the absorbance at 576 nm using a BioTek multimode reader. The percentage of hemolytic activity was calculated using the following formula: Hemolysis rate (%) = [OD576 (compound) − OD576 (PBS)]/[OD576 (Triton X-100) − OD576 (PBS)] × 100. All measurements were repeated three times with duplicates each time.

[8] = tested on: S. aureus ATCC 29213; assay: Time-kill kinetic assay; assay type: cell-based, Staphylococcus aureus; conditions: 10× MIC, 24 hours
Procedure: The bacterial cultures were standardized to obtain an initial density that ranged from 10^5 to 10^6 cells/ml. The cultures were incubated in a shaking bath at 37°C. Viable counts were determined at 0-, 0.5-, 1.0-, 2.0-, 4.0-, 8.0-, and 24-hour intervals by spotting 10-μl aliquots of serially 10-fold diluted cultures onto Mueller-Hinton agar (MHA) plates. […] All measurements were repeated three times with duplicates each time.

[9] = tested on: S. aureus ATCC 29213; assay: Murine corneal infection model; assay type: in vivo, mice; conditions: topical, four times daily for 3 days; XT17 5 mg/ml, vancomycin 50 mg/ml; vs 5% glucose control
Excerpt: Female C57BL/6 mice (average weight, 20 g) were used for the in vivo efficacy experiments. Mice were housed in a specific pathogen–free facility on a 12-hour light-dark cycle, under the condition with ad libitum access to irradiation sterilized rodent diet and aseptic water. […]. These in vivo experiments were approved by the Experimental Animal Center of South China Agricultural University and conducted in accordance with the policies of the Ministry of Health of China.
The in vivo efficacy of compound XT17 was investigated in a murine corneal infection model. Before infection, the mice were immunosuppressed with three intraperitoneal injections of cyclophosphamide (100 mg/kg) over 5 days. After anesthesia with 2.5% avertin (500 mg/kg, ip), the left corneas of mice were scratched with 15 μl of S. aureus ATCC 29213 or P. aeruginosa ATCC 9027 (approximately 5 × 10^7 CFU/ml). Following 1 day of infection, the infected mice were randomly assigned into […] (n = 5) and subsequently administered with 0.5% compound XT17, 5% glucose solution, 5% vancomycin, or 0.3% gatifloxacin topically. S. aureus–caused murine corneal infections were treated four times a day for three consecutive days. Only 2 days of treatment were given for P. aeruginosa–caused murine corneal infections. On the first day, the drug was administered every 20 min for 1 hour and then three times at 2-hour intervals on the second day. The mice were given a 5% glucose solution as a negative control in the absence of any antimicrobial agent treatment. The infected corneas were collected after the mice were euthanized, and the number of viable bacteria was counted using MHA plates.

`O=C(O)c1cn(C2CC2)c2cc(N3CCNCC3)c(F)cc2c1=O` [CPF, ciprofloxacin, reference compound] was tested, and the “increase in MIC values during passages” value [1] was roughly 64 fold, the genes expressed [2] was 4682 genes and the “Log2FC dnaE (DNA polymerase III subunit alpha)” value ([2]; vs untreated) was 1.7739. For the same molecule, the “Log2FC dnaN (DNA polymerase III subunit beta)” value ([2]; vs untreated) was 3.0865, the “Log2FC dnaQ (DNA polymerase III subunit epsilon)” value ([2]; vs untreated) was 1.3670 and the “Log2FC dnaT (primosomal protein DnaT)” value ([2]; vs untreated) was 2.2444. The “Log2FC dnaX (DNA polymerase III subunit gamma/tau)” value ([2]; vs untreated) was 1.7268, the “Log2FC gyrA (DNA topoisomerase (ATP-hydrolyzing) subunit A)” value ([2]; vs untreated) was 2.2544 and the “Log2FC gyrB (DNA topoisomerase (ATP-hydrolyzing) subunit B)” value ([2]; vs untreated) was 2.4048. For the same molecule, the “Log2FC holB (DNA polymerase III subunit delta')” value ([2]; vs untreated) was 1.9890, the “Log2FC holD (DNA polymerase III subunit psi)” value ([2]; vs untreated) was 2.4551 and the “Log2FC parC (DNA topoisomerase IV subunit A)” value ([2]; vs untreated) was 1.5215. The “Log2FC parE (DNA topoisomerase IV subunit B)” value ([2]; vs untreated) was 2.4557, the “Log2FC priA (primosomal protein N')” value ([2]; vs untreated) was 2.8529 and the “Log2FC priB (primosomal replication protein N)” value ([2]; vs untreated) was 3.5288. The “Log2FC priC (primosomal replication protein N'')” value ([2]; vs untreated) was 1.7101, the “Log2FC recA (recombinase RecA)” value ([2]; vs untreated) was 6.2751 and the “Log2FC recF (DNA replication/repair protein RecF)” value ([2]; vs untreated) was 2.2046. The “Log2FC recG (ATP-dependent DNA helicase RecG)” value ([2]; vs untreated) was 1.1384, the “Log2FC recJ (single-stranded-DNA-specific exonuclease RecJ)” value ([2]; vs untreated) was 1.9882 and the “Log2FC recO (DNA repair protein RecO)” value ([2]; vs untreated) was 1.9736. The “Log2FC recR (recombination mediator RecR)” value ([2]; vs untreated) was 1.8874, the “Log2FC ruvA (Holliday junction branch migration protein RuvA)” value ([2]; vs untreated) was 2.8598 and the “Log2FC ruvB (Holliday junction branch migration DNA helicase RuvB)” value ([2]; vs untreated) was 3.4475. For the same molecule, the “Log2FC ruvC (crossover junction endodeoxyribonuclease RuvC)” value ([2]; vs untreated) was 1.8052, the “Log2FC ssb1 (single-stranded DNA-binding protein SSB1)” value ([2]; vs untreated) was 2.6468 and the down-regulated genes ([2]; vs untreated) was 130 genes. For the same molecule, the up-regulated genes ([2]; vs untreated) was 2246 genes and the differentially expressed genes ([2]; vs untreated, P < 0.05, absolute log2 fold change > 1) was 2376 genes.

`CN[C@H](CC(C)C)C(=O)N[C@H]1C(=O)N[C@@H](CC(N)=O)C(=O)N[C@H]2C(=O)N[C@H]3C(=O)N[C@H](C(=O)N[C@H](C(=O)O)c4cc(O)cc(O)c4-c4cc3ccc4O)[C@H](O)c3ccc(c(Cl)c3)Oc3cc2cc(c3O[C@@H]2O[C@H](CO)[C@@H](O)[C@H](O)[C@H]2O[C@H]2C[C@](C)(N)[C@H](O)[C@H](C)O2)Oc2ccc(cc2Cl)[C@H]1O` [VAN, vancomycin, reference compound] showed an MIC90 [3] of 1.56 µg/mL (≈ 1.08 µM), an MIC90 [4] of 1.56 µg/mL (≈ 1.08 µM) and an MIC90 [5] of 0.78 µg/mL (≈ 0.538 µM). For the same molecule, the MIC90 [6] was greater than 50 µg/mL, the HC50 [7] was greater than 200 µg/mL and the “log decrease in bacterial load” value [8] was 4.56 log. The “log reduction in viable bacterial colonies in the infected corneas” value [9] was 5.57 log.
